Laboratory results published in the supplement of paper PMC10307832.

How the values were obtained:
Assay in all cases: relative viability (nuclei count vs DMSO), 5 days (fraction); higher = more cells survive
QS11 + Palbociclib = compound: C1CC2=C(C1)C=C(C=C2)OC3=NC(=C4C(=N3)N(C=N4)CC5=CC=C(C=C5)C6=CC=CC=C6)N[C@@H](CC7=CC=CC=C7)CO [QS11] + CC(=O)c1c(C)c2cnc(Nc3ccc(N4CCNCC4)cn3)nc2n(C2CCCC2)c1=O [Palbociclib] (partner 0.5 µM)
Summary of the method: (§1)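 Values are medians from duplicate plates. Each reflects relative viability, defined as the nuclei count of treated wells over that of vehicle wells. Lung cancer cell lines in 1536-well plates were pin-tool dosed one day after seeding with one drug alone or with a fixed anchor-drug dose plus five library-drug doses (not always all listed) in √10 steps, then fixed, stained and imaged at 4× after 5 days.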

QS11 + Luminespib = compound: C1CC2=C(C1)C=C(C=C2)OC3=NC(=C4C(=N3)N(C=N4)CC5=CC=C(C=C5)C6=CC=CC=C6)N[C@@H](CC7=CC=CC=C7)CO [QS11] + CCNC(=O)c1noc(-c2cc(C(C)C)c(O)cc2O)c1-c1ccc(CN2CCOCC2)cc1 [Luminespib] (partner 0.01 µM)
Summary of the method: as §1

AZ628 + Tozasertib = compound: CC1=C(C=C(C=C1)NC(=O)C2=CC(=CC=C2)C(C)(C)C#N)NC3=CC4=C(C=C3)N=CN(C4=O)C [AZ628] + Cc1cc(Nc2cc(N3CCN(C)CC3)nc(Sc3ccc(NC(=O)C4CC4)cc3)n2)n[nH]1 [Tozasertib] (partner 0.1 µM)
Summary of the method: as §1

AZ628 + AZD7762 = compound: CC1=C(C=C(C=C1)NC(=O)C2=CC(=CC=C2)C(C)(C)C#N)NC3=CC4=C(C=C3)N=CN(C4=O)C [AZ628] + NC(=O)Nc1cc(-c2cccc(F)c2)sc1C(=O)N[C@H]1CCCNC1 [AZD7762] (partner 0.2 µM)
Summary of the method: as §1

LCLC-97TM1
relative viability (QS11 + Palbociclib; first compound 0.253 µM): 0.204
relative viability (QS11 + Palbociclib; first compound 2.53 µM): 0.213
relative viability (QS11 + Palbociclib; first compound 8 µM): 0.277
relative viability (QS11 + Luminespib; first compound 0.08 µM): 0.709
relative viability (QS11 + Luminespib; first compound 0.253 µM): 0.907
relative viability (QS11 + Luminespib; first compound 2.53 µM): 0.768
relative viability (QS11 + Luminespib; first compound 8 µM): 0.69
relative viability (AZ628 + Tozasertib; first compound 0.08 µM): 0.239
relative viability (AZ628 + Tozasertib; first compound 0.253 µM): 0.202
relative viability (AZ628 + Tozasertib; first compound 0.8 µM): 0.235
relative viability (AZ628 + Tozasertib; first compound 2.53 µM): 0.211
relative viability (AZ628 + Tozasertib; first compound 8 µM): 0.167
relative viability (AZ628 + AZD7762; first compound 0.08 µM): 0.307
relative viability (AZ628 + AZD7762; first compound 0.253 µM): 0.331
relative viability (AZ628 + AZD7762; first compound 0.8 µM): 0.243
relative viability (AZ628 + AZD7762; first compound 2.53 µM): 0.201
relative viability (AZ628 + AZD7762; first compound 8 µM): 0.108
